Test results reported in patent US11220524B2, “Selective inhibitors of protein arginine methyltransferase 5 (PRMT5)” (PRELUDE THERAPEUTICS, INCORPORATED, priority 2017, dated 2022).
Structures can show the parent of a compound that is named as a salt. Where two headings read alike, the source gives them in different places.

Tests used:
PRMT5/MEP50 complex = PRMT5/MEP50 complex (Homo sapiens (Human), UniProt O14744); assay: Biochemical assay: PRMT5/MEP50 methylation of histone H2A with 3H-SAM, filter plate scintillation
Sequence of PRMT5/MEP50 complex (O14744 whole entry): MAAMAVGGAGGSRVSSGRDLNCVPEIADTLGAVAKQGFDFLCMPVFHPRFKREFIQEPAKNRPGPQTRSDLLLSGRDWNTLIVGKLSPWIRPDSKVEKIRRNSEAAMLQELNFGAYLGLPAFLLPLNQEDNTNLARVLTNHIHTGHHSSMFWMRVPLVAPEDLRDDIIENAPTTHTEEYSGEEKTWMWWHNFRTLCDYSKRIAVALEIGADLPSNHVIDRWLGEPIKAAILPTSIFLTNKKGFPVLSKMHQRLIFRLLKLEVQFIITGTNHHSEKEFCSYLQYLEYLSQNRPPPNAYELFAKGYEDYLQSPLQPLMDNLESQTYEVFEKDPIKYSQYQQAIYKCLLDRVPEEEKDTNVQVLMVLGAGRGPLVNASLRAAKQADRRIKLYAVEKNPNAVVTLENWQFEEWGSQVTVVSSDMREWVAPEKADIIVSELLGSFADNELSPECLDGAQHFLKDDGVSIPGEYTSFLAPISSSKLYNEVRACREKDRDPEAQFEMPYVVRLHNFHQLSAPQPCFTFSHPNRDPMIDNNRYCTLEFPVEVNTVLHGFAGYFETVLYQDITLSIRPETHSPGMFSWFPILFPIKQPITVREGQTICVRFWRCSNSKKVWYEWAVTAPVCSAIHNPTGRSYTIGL
Sequence of PRMT5/MEP50 complex (Q9BQA1 whole entry partner): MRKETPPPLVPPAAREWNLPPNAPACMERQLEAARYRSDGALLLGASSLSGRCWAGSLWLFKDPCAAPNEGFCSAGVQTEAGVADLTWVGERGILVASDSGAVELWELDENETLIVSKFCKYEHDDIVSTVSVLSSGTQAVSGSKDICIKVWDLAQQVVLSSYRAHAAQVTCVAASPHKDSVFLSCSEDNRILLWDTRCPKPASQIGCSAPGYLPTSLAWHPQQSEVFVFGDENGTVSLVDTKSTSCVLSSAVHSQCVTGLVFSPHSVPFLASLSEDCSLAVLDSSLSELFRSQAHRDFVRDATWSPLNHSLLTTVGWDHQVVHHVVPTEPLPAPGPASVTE
Procedure, shortened: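 5 nM PRMT5/MEP50 preincubated with compound 15–20 min at room temperature, with 5 μM histone H2A as substrate; reaction started with 1 μM 3H-SAM and run 60 min at 30 °C. TCA-stopped, filter-captured methylation counted by scintillation; IC50 from 4-parameter Hill fit.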

[1] = tested on: Symmetric Di-Methyl Arginine (sDMA) in Granta-519 cells; assay: Western blot for symmetric di-methyl arginine (sDMA) marks in Granta cells, 3 days treatment; assay type: cell-based; conditions: Homo sapiens, 3 days
Experimental: Cell Treatment and Western Blotting for Detecting Symmetric Di-Methyl Arginine (sDMA) and Histone H3R8 Dimethyl Symmetric (H3R8me2s) Marks
Initial compounds screening in A549 cells: Compounds were dissolved in DMSO to make 10 mM stock and further diluted to 0.1, and 1 mM. A549 cells were maintained in PRMI 1640 (Corning Cellgro, Catalog #: 10-040-CV) medium supplemented with 10% v/v FBS (GE Healthcare, Catalog #: SH30910.03). One day before experiment, 1.25×10^5 cells were seeded in 6 well plate in 3 mL medium and incubated overnight. The next day, medium was changed and 3 uL of compound solution was added (1:1,000 dilution, 0.1 and 1 uM final concentration; DMSO concentration: 0.1%), and incubated for 3 days. Cells incubated with DMSO was used as a vehicle control. Cells were washed once with PBS, trypsinized in 150 uL 0.25% Trypsin (Corning, Catalog #: 25-053-CI), neutralized with 1 mL complete medium, transferred to microcentrifuge tubes and collected. Cell pellet was then resuspended in 15 uL PBS, lysed in 4% SDS, and homogenized by passing through homogenizer column (Omega Biotek, Catalog #: HCR003). Total protein concentrations were determined by BCA assay (ThermoFisher Scientific, Catalog #: 23225). Lysates were mixed with 5× Laemmli buffer and boiled for 5 min. Forty ug of total protein was separated on SDS-PAGE gels (Bio-Rad, catalog #: 4568083, 4568043), transferred to PVDF membrane, blocked with 5% dry milk (Bio-Rad, Catalog #: 1706404) in TBS with 0.1% v/v Tween 20 (TBST) for 1 hour at room temperature (RT), and incubated with primary antibodies (sDMA: Cell signaling, Catalog #: 13222, 1:3,000; H3R8me2s: Epigentek, Catalog #: A-3706-100, 1:2,000; β-Actin: Abcam, Catalog #: ab8227, 1:10,000) in 5% dry milk in TBST at 4° C. for overnight. The next day, membranes were washed with TBST, 5×5 min, and incubated withhP conjugated seconded antibody (GE Healthcare; Catalog #: NA934-1ML; 1:5,000) for 2 hours at RT, followed by 5×5 min washes with TBST, and incubation with ECL substrates (Bio-Rad, Catalog #: 1705061, 1705062). Chemiluminescent signal was captured with FluoChem HD2 imager (Proteinsimple) and analyzed by ImageJ.
Cells incubated with DMSO was used as a vehicle control. Cells were harvested and subjected to western blot analysis as described above. SmD3me2s and H3R8me2s bands were quantified by ImageJ. Signals were normalized to β-Actin and DMSO control. IC50 values were calculated using Graphpad Prism.

Granta-519 cells = assay: Cell proliferation assay on Granta-519 cells (CCK-8, day 10); assay type: cell-based; conditions: Homo sapiens
Experimental: Cell Proliferation Assay to Determine IC50 on Granta-519 Cells
Granta-519 cells were maintained in PRMI 1640 (Corning Cellgro, Catalog #: 10-040-CV) medium supplemented with 10% v/v FBS (GE Healthcare, Catalog #: SH30910.03). Compounds were dissolved in DMSO to make 10 mM stocks and stored at −20° C. Nine-point, 3-fold serial dilutions were made with DMSO with top concentration at 1 mM (working stocks).
On day of experiment, compound working stocks were further diluted at 1:50 with fresh medium in 96 well plate, and 10 μL of diluted drugs were added to a new 96 well plate for proliferation assay. Cells growing at exponential phase were spun down at 1500 rpm for 4 min and resuspend in fresh medium to reach a density of 0.5×10^6 cells/ml. 200 ul of cells were added to 96 well plate containing diluted drugs and incubated for 3 days. DMSO was used a vehicle control.
One day 3, 10 μL of Cell Counting Kit-8 (CCK-8, Jojindo, CK04-13) solution was added to a new 96 well plate. Cells incubated with drugs for 3 days were resuspended by pipetting up and down, and 100 μL of cells were transferred to 96 well plate containing CCK-8 reagent to measure viable cells. Plates were incubated in C02 incubator for 2 hours and OD450 values were measured with a microplate reader (iMark microplate reader, Bio-Rad).
For re-plating, compound working stocks were diluted at 1:50 with fresh medium and 10 μL of diluted drugs were added to anew 96 well plate. Cells from Day 3plate (50 ul) were added to 96 well plate containing fresh drug and additional 150 of fresh medium was added to reach 200 ul volume. Plate was returned to CO2incubator and incubated for 3more days. Viable cells measurement and re-plating were repeated on day 6, and the final viable cells measurement was taken on day 10.
Percentage of viable cells, relative to DMSO vehicle control, were calculated and plotted in Graphpad Prism ([Inhibitor] vs. normalized response-Variable slope) to determine proliferation IC50 values on day 10.

[2] = histone H2A 5 μM, SAM 1 μM, enzyme 5 nM, read-out: PRMT5/MEP50 IC50

Row | IC50 (PRMT5/MEP50 complex; biochemical potency, read-out: PRTMT5/MEP50 IC50) [nM] | IC50 ([1]; Granta-519, 72 h, Granta cell line) [nM] | IC50 (PRMT5/MEP50 complex; [2]) [nM] | IC50 ([1]; 72 h, Granta-519 cell line) [nM] | SMILES | IC50 (Granta-519 cells; Granta-519, 240 h, Granta cell line, read-out: Prolif. IC50) [nM] | IC50 (Granta-519 cells; 240 h, Granta-519 cell line, read-out: Proliferation IC50) [nM]
1 | 0.82 | 28 | – | – | CO/N=c1\nc[nH]c2c1ccn2[C@@H]1C[C@H](CCc2ccc3ccc(NCC4CC4)nc3c2)[C@@H](O)[C@H]1O [Example 90-B, 7-((1R,2S,3R,4S)-4-(2-(2-((cyclopropylmethyl)amino)quinolin-7-yl)ethyl)-2,3-dihydroxycyclopentyl)-1,7-dihydro-4H-pyrrolo[2,3-d]pyrimidin-4-one O-methyl oxime] | 229 | –
2 | – | – | 2.4 | 8.4 | CCO/N=c1/nc[nH]c2c1ccn2[C@@H]1O[C@H]([C@](C)(O)c2ccc(Cl)c(Cl)c2)[C@@H](O)[C@H]1O [Example 99, 7-((2R,3R,4S,5S)-5-((R)-1-(3,4-dichlorophenyl)-1-hydroxyethyl)-3,4-dihydroxytetrahydrofuran-2-yl)-1,7-dihydro-4H-pyrrolo[2,3-d]pyrimidin-4-one O-ethyl oxime] | – | 94
3 | – | – | 0.7 | 10.8 | O/N=c1/nc[nH]c2c1ccn2[C@@H]1O[C@H]([C@H](O)c2ccc(Cl)c(F)c2)[C@@H](O)[C@H]1O [compound 63, 7-((2R,3R,4S,5R)-5-((R)-(4-chloro-3-fluorophenyl)(hydroxy)methyl)-3,4-dihydroxytetrahydrofuran-2-yl)-1,7-dihydro-4H-pyrrolo[2,3-d]pyrimidin-4-one oxime] | – | –
4 | – | – | 8.3 | 93 | CN/N=c1\nc[nH]c2c1ccn2[C@@H]1O[C@H]([C@H](O)c2ccc(Cl)cc2)[C@@H](O)[C@H]1O [compound 64, (2R,3S,4R,5R)-2-[(R)-(4-chlorophenyl)-hydroxy-methyl]-5-[4-(methylhydrazono)-1H-pyrrolo[2,3-d]pyrimidin-7-yl]tetrahydrofuran-3,4-diol hydrochloride] | – | –
5 | – | – | 1.9 | 16 | O/N=c1/nc[nH]c2c1ccn2[C@@H]1O[C@H]([C@H](O)c2ccc(F)c(Cl)c2)[C@@H](O)[C@H]1O [compound 65, 7-((2R,3R,4S,5R)-5-((R)-(3-chloro-4-fluorophenyl)(hydroxy)methyl)-3,4-dihydroxytetrahydrofuran-2-yl)-1,7-dihydro-4H-pyrrolo[2,3-d]pyrimidin-4-one oxime] | – | –
6 | – | – | 0.4 | 1.8 | O/N=c1\nc[nH]c2c1ccn2[C@@H]1O[C@H]([C@H](O)c2ccc(Cl)c(Cl)c2)[C@@H](O)[C@H]1O [compound 66, 7-((2R,3R,4S,5R)-5-((R)-(3,4-dichlorophenyl)(hydroxy)methyl)-3,4-dihydroxytetrahydrofuran-2-yl)-1,7-dihydro-4H-pyrrolo[2,3-d]pyrimidin-4-one oxime] | – | –
7 | – | – | 0.6 | 10 | O/N=c1\nc[nH]c2c1ccn2[C@@H]1O[C@H]([C@H](O)c2ccc(F)c(F)c2)[C@@H](O)[C@H]1O [compound 67, 7-((2R,3R,4S,5R)-5-((R)-(3,4-difluorophenyl)(hydroxy)methyl)-3,4-dihydroxytetrahydrofuran-2-yl)-1,7-dihydro-4H-pyrrolo[2,3-d]pyrimidin-4-one oxime] | – | –
8 | – | – | 35 | 90 | CO/N=c1/nc[nH]c2c1ccn2[C@@H]1O[C@H]([C@H](O)c2ccc(F)c(Cl)c2)[C@@H](O)[C@H]1O [compound 68, 7-((2R,3R,4S,5R)-5-((R)-(3-chloro-4-fluorophenyl)(hydroxy)methyl)-3,4-dihydroxytetrahydrofuran-2-yl)-1,7-dihydro-4H-pyrrolo[2,3-d]pyrimidin-4-one O-methyl oxime] | – | –
9 | – | – | 13.9 | 260 | Cc1n/c(=N\O)c2ccn([C@@H]3O[C@H]([C@H](O)c4ccc(Cl)cc4)[C@@H](O)[C@H]3O)c2[nH]1 [compound 71, 7-((2R,3R,4S,5R)-5-((R)-(4-chlorophenyl)(hydroxy)methyl)-3,4-dihydroxytetrahydrofuran-2-yl)-2-methyl-1,7-dihydro-4H-pyrrolo[2,3-d]pyrimidin-4-one oxime] | – | –
10 | – | – | 2.8 | 41 | O/N=c1/nc[nH]c2c1c(F)cn2[C@@H]1O[C@H]([C@H](O)c2ccc(Cl)cc2)[C@@H](O)[C@H]1O [compound 72, 7-((2R,3R,4S,5R)-5-((R)-(4-chlorophenyl)(hydroxy)methyl)-3,4-dihydroxytetrahydrofuran-2-yl)-5-fluoro-1,7-dihydro-4H-pyrrolo[2,3-d]pyrimidin-4-one oxime] | – | –
11 | – | – | 9.7 | 313 | N/N=c1/nc[nH]c2c1c(F)cn2[C@@H]1O[C@H]([C@H](O)c2ccc(Cl)cc2)[C@@H](O)[C@H]1O [compound 73, (2R,3S,4R,5R)-2-((R)-(4-chlorophenyl)(hydroxy)methyl)-5-(5-fluoro-4-hydrazineylidene-1,4-dihydro-7H-pyrrolo[2,3-d]pyrimidin-7-yl)tetrahydrofuran-3,4-diol] | – | –
12 | – | – | 3.1 | 33 | CO/N=c1/nc[nH]c2c1ccn2[C@@H]1O[C@H]([C@H](O)c2ccc(C(F)(F)F)c(F)c2)[C@@H](O)[C@H]1O [compound 78, 7-((2R,3R,4S,5R)-5-((R)-(3-fluoro-4-(trifluoromethyl)phenyl)(hydroxy)methyl)-3,4-dihydroxytetrahydrofuran-2-yl)-1,7-dihydro-4H-pyrrolo[2,3-d]pyrimidin-4-one O-methyl oxime] | – | –
13 | – | – | 0.7 | 18 | CO/N=c1/nc[nH]c2c1ccn2[C@@H]1O[C@H]([C@H](O)c2ccc(Cl)c(C)c2)[C@@H](O)[C@H]1O [compound 80, 7-((2R,3R,4S,5R)-5-((R)-(4-chloro-3-methylphenyl)(hydroxy)methyl)-3,4-dihydroxytetrahydrofuran-2-yl)-1,7-dihydro-4H-pyrrolo[2,3-d]pyrimidin-4-one O-methyl oxime] | – | –
14 | – | – | 0.3 | 9 | CN/N=c1\nc[nH]c2c1ccn2[C@@H]1O[C@H]([C@H](O)c2ccc(Cl)c(Cl)c2)[C@@H](O)[C@H]1O [compound 81, (2R,3S,4R,5R)-2-((R)-(3,4-dichlorophenyl)(hydroxy)methyl)-5-(4-(2-methylhydrazineylidene)-1,4-dihydro-7H-pyrrolo[2,3-d]pyrimidin-7-yl)tetrahydrofuran-3,4-diol] | – | –
15 | – | – | 3.9 | 11 | CCO/N=c1/[nH]cnc2c1ccn2[C@@H]1O[C@H]([C@H](O)c2ccc(Cl)c(Cl)c2)[C@@H](O)[C@H]1O [compound 82, 7-((2R,3R,4S,5R)-5-((R)-(3,4-dichlorophenyl)(hydroxy)methyl)-3,4-dihydroxytetrahydrofuran-2-yl)-3,7-dihydro-4H-pyrrolo[2,3-d]pyrimidin-4-one O-ethyl oxime] | – | –
